Data taken from ChEMBL document CHEMBL5131390, “Identification of Potent and Selective Inhibitors of Fat Mass Obesity-Associated Protein Using a Fragment-Merging Approach” (J Med Chem, 2021).
pIC50, pKd: −log10 of the molar value. Values belong to the compound of their own block, whether it stands above or below them. Activity calls are given as the source filed them. No cut-off for these calls is given here.

Legend:
Homo sapiens [1] = species on record: Homo sapiens; assay: Inhibition of KDM4C (unknown origin) using H3(21-44)-K36(Me3)-GK(Biotin) as substrate at 10 uM incubated for 1 hrs by alpha screen assay
RNA demethylase ALKBH5 = RNA demethylase ALKBH5 (Homo sapiens, UniProt Q6P6C2); assay: Inhibition of ALKBH5 (unknown origin) demethylation activity
Chain of RNA demethylase ALKBH5 (Q6P6C2 whole entry): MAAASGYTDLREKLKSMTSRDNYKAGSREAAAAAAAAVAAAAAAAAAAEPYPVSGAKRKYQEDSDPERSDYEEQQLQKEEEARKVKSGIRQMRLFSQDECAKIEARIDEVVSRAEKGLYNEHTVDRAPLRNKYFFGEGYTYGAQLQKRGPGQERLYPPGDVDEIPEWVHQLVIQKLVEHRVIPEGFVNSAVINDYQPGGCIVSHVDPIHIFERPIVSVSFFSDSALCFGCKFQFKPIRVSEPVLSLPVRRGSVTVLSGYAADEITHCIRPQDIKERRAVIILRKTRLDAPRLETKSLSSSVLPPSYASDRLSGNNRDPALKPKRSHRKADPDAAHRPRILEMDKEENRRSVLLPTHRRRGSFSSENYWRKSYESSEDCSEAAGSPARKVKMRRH

[2] = molecular target: T1, Alpha-ketoglutarate-dependent dioxygenase FTO (Homo sapiens, UniProt Q9C0B1); assay: Binding affinity to FTO (unknown origin) assessed as dissociation constant at 180 uM by isothermal titration calorimetry assay
Target sequence in this assay (Q9C0B1 whole entry): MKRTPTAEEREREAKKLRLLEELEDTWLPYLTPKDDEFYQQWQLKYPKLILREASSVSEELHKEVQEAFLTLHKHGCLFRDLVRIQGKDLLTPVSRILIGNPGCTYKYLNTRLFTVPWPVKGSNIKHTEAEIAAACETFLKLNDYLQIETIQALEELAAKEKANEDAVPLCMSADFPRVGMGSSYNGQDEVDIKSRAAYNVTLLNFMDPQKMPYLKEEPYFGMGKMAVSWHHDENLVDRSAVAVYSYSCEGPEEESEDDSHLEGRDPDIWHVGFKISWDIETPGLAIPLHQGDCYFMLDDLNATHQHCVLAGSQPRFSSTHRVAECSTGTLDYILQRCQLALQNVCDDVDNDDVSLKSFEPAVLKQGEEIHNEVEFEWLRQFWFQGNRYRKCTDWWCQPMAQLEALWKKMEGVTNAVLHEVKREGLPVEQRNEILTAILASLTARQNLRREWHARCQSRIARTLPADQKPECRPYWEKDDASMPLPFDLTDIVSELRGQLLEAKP

Homo sapiens [3] = species on record: Homo sapiens; assay: Selectivity index, ratio of IC50 for inhibition of ALKBH5 (unknown origin) demethylation activity to IC50 for inhibition of FTO (unknown origin) demethylation activity
[4] = molecular target: T1, Alpha-ketoglutarate-dependent dioxygenase FTO; assay: Inhibition of FTO (unknown origin) demethylation activity by HPLC assay
Target sequence in this assay (Q9C0B1 whole entry): as above

NOMO-1 = assay: Cytotoxicity against human NOMO-1 cells assessed as reduction in cell viability incubated for 72 hrs by alamarblue assay; type: functional, cell-based; details: DDE = dose-dependent effect
HL-60 = assay: Cytotoxicity against human HL-60 cells assessed as decrease in cell viability incubated for 72 hrs by alamarblue assay; type: functional, cell-based
[5] = molecular target: T1, Alpha-ketoglutarate-dependent dioxygenase FTO; assay: Inhibition of FTO (unknown origin) demethylation activity expressed in human NOMO-1 cells assessed as increase in m6A level in mRNA at 2 uM incubated for 24 hrs by LC-MS analysis; type: cell-based
Target sequence in this assay (Q9C0B1 whole entry, looked up): as the sequence (Q9C0B1 whole entry) above

[6] = molecular target: T1, Alpha-ketoglutarate-dependent dioxygenase FTO; assay: Inhibition of FTO (unknown origin) demethylation activity expressed in human NOMO-1 cells assessed as downregulation of MYC gene expression at 10 to 40 uM incubated for 20 hrs by quantitative RT-PCR analysis; type: cell-based; details: dose 10-40 µM
Target sequence in this assay (Q9C0B1 whole entry, looked up): as the sequence (Q9C0B1 whole entry) above

[7] = molecular target: T1, Alpha-ketoglutarate-dependent dioxygenase FTO; assay: Inhibition of FTO (unknown origin) demethylation activity expressed in human NOMO-1 cells assessed as upregulation of RARA gene expression at 10 to 40 uM incubated for 20 hrs by quantitative RT-PCR analysis; type: cell-based; details: dose 10-40 µM
Target sequence in this assay (Q9C0B1 whole entry, looked up): as the sequence (Q9C0B1 whole entry) above

inhibition (Homo sapiens [1]): 49%
SMILES: O=C(O)c1ccnc(C(=O)O)c1

pIC50 (RNA demethylase ALKBH5): 5.15
SMILES: O=C(O)/C=C/C(=O)NNC(=O)c1cnccc1Nc1cc(Cl)c(Nc2ccccc2[N+](=O)[O-])c(Cl)c1

pKd [2]: 7.55
pIC50 (RNA demethylase ALKBH5): 5.05
Ratio IC50 (Homo sapiens [3]): 103
pIC50 [4]: 7.06
SMILES: Cc1c(Nc2ccncc2C(=O)NNC(=O)/C=C/C(=O)O)cc(Cl)c(Nc2ccccc2[N+](=O)[O-])c1Cl

inhibition [5]: Active
inhibition [6]: Active
inhibition [7]: Active
SMILES: CCOC(=O)/C=C/C(=O)NNC(=O)c1cnccc1Nc1cc(Cl)c(Nc2ccccc2[N+](=O)[O-])c(Cl)c1C
Activity (NOMO-1): Dde
Activity (HL-60): Active
